Columns and labels:
[1] = system: Gαs-GFP; type: cell-based
[2] = molecular target: β-adrenergic receptor; assay: cell-based or functional assay
[3] = system: Gαs-GFP; type: cell-based; remark: listed apart in the source
[4] = living cells transfected with Gαs-GFP

CC(C)NCC(O)c1ccc(O)c(O)c1 (centres unmarked) [isoproterenol]
cells showing internalized Gαs-GFP in response to isoproterenol ([1]; isoproterenol 20 μM, COS cells, 37° C., 58 cells in 15 experiments): Approximately 70% | release of Gαs-GFP from plasma membrane into the cytoplasm [1, 4]: rapid partial release of Gαs-GFP into the cytoplasm | time after treatment at which extent of Gαs-GFP release from plasma membrane was maximal [1, 4]: 1 min

Gαs-GFP fusion protein (GFP inserted within the internal amino acid sequence of long Gαs)
percent of cells with internalized Gαs-GFP in response to isoproterenol (20 µM) [2]: 70%

cholera toxin
displacement of Gαs-GFP from the plasma membrane [3]: gradual displacement of Gαs-GFP from the plasma membrane throughout the cytoplasm

Reference: US20120142015A1, “GFP FUSION PROTEINS AND THEIR USE” (The Board of Trustees of The University of Illinois, priority 2001, published 2012)
